Data: patent US6235731A, “Fused imidazopyridine derivatives as antihyperlipidemic agents” (Takeda Chemical Industries, Ltd., priority 1996, dated 2001)
Structures can show the parent of a compound that is named as a salt. Where two headings read alike, the source gives them in different places.

Legend:
HepG2 cells = experiment: Increase in LDL-binding to HepG2 cells; type: cell-based; details: 10 μM test compound, 20 hours, specific human [125I]LDL binding, normalized by protein, read-out: LDL binding (% of control)
Experimental: Increase in LDL-binding to HepG2 cells LDL-binding was measured according to the method of J. L. Goldstein. HepG2 cells were purchased from ATCC (American type culture collection) and seeded in 6-well plate with collagen coating (Sumitomo Bakelite), and cultured in Eagle's minimum essential medium (MEM) containing 10%-fetal bovine serum at 37° C. for 4 days. […] After washing with phosphate buffered saline cells were incubated with MEM containing 25 mM-HEPES and 1%-bovine serum albumin (fatty acid free) in the presence of human [^125 I]LDL (4 μg/ml) at 6° C. for 2 hours. After washing cells bound [^125 I]LDL was dissociated with dextran sulfate and the radioactivity was measured (total binding). [^125 I]LDL binding to cells was also measured in the presence of LDL (300 μg/ml) as a non-specific binding (NSB). Specific [^125 I]LDL-binding was calculated by subtracting NSB from total binding and was normalized by protein content measured by the method of lowry. Data was expressed as percentage of the control.

Golden Syrian hamsters = experiment: Cholesterol lowering activity in Golden hamster; type: in vivo, Golden Syrian hamster; details: Mesocricetus auratus, po, 96 h, 20 mg/kg/d orally, once daily for 4 days
Experimental: Cholesterol lowering activity in Golden hamster Male Golden Syrian hamsters (110-130 g) were maintained freely on water and a laboratory diet (CE-2, Clea Japan Inc., Tokyo). […] Blood was taken from orbital sinus and plasma total cholesterol and triglyceride were measured an automatic analyzer (Hitachi 7070, Hitachi Ltd., Tokyo) using commercial kits (Wako Pure Chemical Industries, Osaka), and plasma HDL-cholesterol using a commercial kit (Kyowa Medex Co., Ltd., Tokyo) before and after the treatment of compound. Non-HDL cholesterol was calculated by subtracting HDL-cholesterol from total cholesterol. |Non-HDL-C (non-HDL-cholesterol): [total cholesterol]-[HDL-cholesterol] |TG: triglyceride

Wistar fatty rats = experiment: Lipid-lowering effect in Wistar fatty rats; type: in vivo, Wistar fatty rat; details: 30 mg/kg/day by stomach tube, 2 weeks, plasma, Mean ± SD (n = 6)
Experimental: Lipid-lowering effect in Wistar fatty rats
Male Waistar fatty rats were maintained on free access to normal diet (CE-2, Clea Japan) and water. Body weights were measured at 10 weeks of age and the blood was taken from the orbital sinus and determined for plasma total cholesterol (TC), triglyceride (TG), glucose, and HDL-cholesterol (HDL-C) with Wako Pure Chemical and Kyowa Medex kits using an automatic analyzer (Hitachi 7070). Non-HDL-cholesterol (non-HDL-C) was calculated by subtracting HDL-cholesterol from total cholesterol.
The rats were divided into 2 groups (n=6) and 30 mg/kg/day of the test compound (Example 22) in 0.5% methylcellulose solution was administered by a stomach tube to one of the groups once daily for 2 weeks (test group). 0.5% Methylcellulose solution only was similarly administered to the other group (control group). On day 14, body weights were measured again and the blood was taken from the orbital sinus and determined for plasma total cholesterol, HDL-cholesterol, triglyceride, and glucose in the same manner as before.

[1] = plasma triglyceride, read-out: TG (% of control)
[2] = plasma, [total cholesterol]-[HDL-cholesterol], read-out: Non-HDL-C (% of control)

Structure (SMILES)	activity at 10 µM (HepG2 cells) [%]	response vs control in vivo at 20 mg/kg (Golden Syrian hamsters; [1]) [%]	response vs control in vivo at 20 mg/kg (Golden Syrian hamsters; [2]) [%]	TG (Wistar fatty rats; * P < 0.05 vs control group (324.7 ± 74.2)) [mg/dL]	Glucose (Wistar fatty rats; * P < 0.05 vs control group (366.8 ± 72.0)) [mg/dL]	Non-HDL-C (Wistar fatty rats; ** P < 0.01 vs control group (39.9 ± 3.7)) [mg/dL]
O=C(NCC1CCN(CCCc2ccccc2)CC1)C1=Cc2cnc3cccc(n23)S1 [Example 22, N-[1-(3-phenylpropan-1-yl)piperidin-4-ylmethyl]-5-thia-1,8b-diazaacenaphthylene-4-carboxamide Dihydrochloride]	126	62.3	58.8	258.3 ± 38.4	268.2 ± 81.9	30.0 ± 5.2
O=C(NCC1CCN(CCCc2ccc(F)cc2F)CC1)C1=Cc2cnc3cccc(n23)S1 [Example 76, N-[1-(3-(2,4-difluorophenyl)propan-1-yl)piperidin-4-ylmethyl]-5-thia-1,8b-diazaacenaphthylene-4-carboxamide Dihydrochloride]	282	58.1	74			
